From patent publication US9353155B2, “Cell-penetrating peptides” (Universite Pierre et Marie Curie (Paris 6), priority 2011, dated 2016)
No end group written: not given here.

Key:
human cell lines = details: cited from earlier work
[1] = test system: human breast cancer xenograft; details: injected in mice bearing human breast cancer xenograft; cited from earlier work
[2] = test system: tumoral B cells isolated from chronic lymphocyte leukemia patients; details: cited from earlier work
[3] = assay type: in vitro ADME, human
Experimental: The ratio of intensity of each pick is represented, relative to its own control. The R residue was mutated to K (Mut1-DPT-C9h), N (Mut2-DPT-C9h) or A (Mut3-DPT-C9h). Round: control DPT-C9h peptide (SEQ ID NO:6), Square: Mut1-DPT-C9h, Triangle: Mut2-DPT-C9h, Diamond: Mut3-DPT-C9h.
Analysis Peptide Stability in Human Serum
Analysis of peptides degradation was done by Proteominer and Maldi-Tof as previously described.

Substance	induction of apoptosis (human cell lines)	size of tumor [1]	effect on healthy cells [2]	apoptotic effect ([2]; tumoral B cells isolated from chronic lymphocyte leukemia patients)	degradation upon contact with human serum [3]
VKKKKIKREIKI-YVETLDDIFEQWAHSEDL (VKKKKIKREIKIYVETLDDIFEQWAHSEDL; cell penetrating peptide) [DPT-C9h]	induces apoptosis	important reduction	without effect	specific apoptotic effect	–
VKKKKIKAEIKIYVETLDDIFEQWAHSEDL [Mut3-DPT-C9h, VKKKKIKAEIKI-YVETLDDIFEQWAHSEDL]	–	–	–	–	not degraded
